Reference: BigSolDB 2.1

O=C1C=CC(=O)N1c1cc(F)c(Br)c(F)c1
Settings | solubility (mole fraction)
in 1,4-dioxane, 287.65 K | 0.0122
in 1,4-dioxane, 290.65 K | 0.0133
in 1,4-dioxane, 293.85 K | 0.0146
in 1,4-dioxane, 297.15 K | 0.016
in 1,4-dioxane, 302.05 K | 0.0183
in 1,4-dioxane, 306.25 K | 0.0206
in 1,4-dioxane, 310.05 K | 0.023
in 1,4-dioxane, 317.15 K | 0.0281
in 1,4-dioxane, 321.65 K | 0.0318
in 1,4-dioxane, 324.45 K | 0.0342
in 1,4-dioxane, 330.85 K | 0.0408
in 1,4-dioxane, 335.35 K | 0.0464
in 1,4-dioxane, 339.15 K | 0.0513
in 1,4-dioxane, 342.25 K | 0.0558
in 1,4-dioxane, 347.25 K | 0.0639
in 1,4-dioxane, 353.65 K | 0.0759
in 2-butanone, 289.75 K | 0.0086
in 2-butanone, 299.25 K | 0.0112
in 2-butanone, 303.5 K | 0.0128
in 2-butanone, 308.75 K | 0.0149
in 2-butanone, 313 K | 0.017
in 2-butanone, 316.25 K | 0.0187
in 2-butanone, 318.6 K | 0.0202
in 2-butanone, 321.75 K | 0.022
in 2-butanone, 324.25 K | 0.0237
in 2-butanone, 327.05 K | 0.0257
in 2-butanone, 331.95 K | 0.0296
in 2-butanone, 335.25 K | 0.0326
in 2-butanone, 338.85 K | 0.036
in 2-butanone, 341.55 K | 0.039
in 2-butanone, 343.5 K | 0.0411
in 2-butanone, 345.25 K | 0.0432
in DMF, 289.45 K | 0.0208
in DMF, 293.65 K | 0.0228
in DMF, 300.83 K | 0.0269
in DMF, 305.65 K | 0.0301
in DMF, 308.85 K | 0.0324
in DMF, 317.55 K | 0.0398
in DMF, 320.45 K | 0.0426
in DMF, 322.95 K | 0.0452
in DMF, 325.25 K | 0.0477
in DMF, 333.55 K | 0.0582
in DMF, 337.65 K | 0.0643
in DMF, 342.65 K | 0.0722
in DMF, 346.65 K | 0.0794
in DMF, 350.75 K | 0.0876
in DMF, 353.35 K | 0.0932
in DMF, 356.25 K | 0.1
in DMSO, 289.35 K | 0.0116
in DMSO, 293.65 K | 0.0131
in DMSO, 297.05 K | 0.0143
in DMSO, 301.45 K | 0.0161
in DMSO, 305.95 K | 0.0184
in DMSO, 309.45 K | 0.0202
in DMSO, 314.05 K | 0.0231
in DMSO, 318.15 K | 0.026
in DMSO, 324.55 K | 0.0314
in DMSO, 328.05 K | 0.0348
in DMSO, 333.65 K | 0.0406
in DMSO, 338.85 K | 0.0473
in DMSO, 342.55 K | 0.0527
in DMSO, 346.05 K | 0.058
in DMSO, 349.35 K | 0.0637
in DMSO, 355.95 K | 0.0768
in cyclohexanone, 285.15 K | 0.0129
in cyclohexanone, 291.25 K | 0.0151
in cyclohexanone, 295.15 K | 0.0167
in cyclohexanone, 300.15 K | 0.0191
in cyclohexanone, 305.65 K | 0.0221
in cyclohexanone, 311.65 K | 0.0259
in cyclohexanone, 316.55 K | 0.0295
in cyclohexanone, 321.85 K | 0.0342
in cyclohexanone, 324.95 K | 0.037
in cyclohexanone, 328.75 K | 0.0411
in cyclohexanone, 333.25 K | 0.0462
in cyclohexanone, 337.35 K | 0.0515
in cyclohexanone, 341.35 K | 0.0572
in cyclohexanone, 348.35 K | 0.069
in cyclohexanone, 351.65 K | 0.0751
in cyclohexanone, 355.05 K | 0.0823
in toluene, 291.05 K | 0.0031
in toluene, 296.35 K | 0.0037
in toluene, 299.15 K | 0.0041
in toluene, 302.95 K | 0.0047
in toluene, 306.05 K | 0.0053
in toluene, 310.15 K | 0.0061
in toluene, 315.95 K | 0.0075
in toluene, 321.05 K | 0.0089
in toluene, 325.15 K | 0.0103
in toluene, 330.65 K | 0.0124
in toluene, 334.45 K | 0.014
in toluene, 340.75 K | 0.0175
in toluene, 343.55 K | 0.0192
in toluene, 348.45 K | 0.0226
in toluene, 350.65 K | 0.0244
in toluene, 354.45 K | 0.0276
